Test system: 388556-164-R-J1-PDC complex spheroid viability
Test: Anticancer human tumor 388556-164-R-J1-PDC patient-derived colon adenocarcinoma cell line growth inhibition [RAS]
Conditions: for IC50: curve of first compound; for viability, T/C: stronger effect = lower value
In short: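 Multi-cell-type spheroids: tumor cells plus HUVEC endothelial cells and mesenchymal stem cells. RAS-pathway inhibitors were combined with targeted agents, each dosed in half-log steps down from clinical Cmax, or from 10 microM when Cmax was unknown.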

[1] = second compound 0.00316 µM, first compound 0.0316 µM
[2] = second compound 0.00316 µM, first compound 0.1 µM
[3] = second compound 0.00316 µM, first compound 0.316 µM
[4] = second compound 0.00316 µM, first compound 1 µM
[5] = second compound 0.00316 µM, first compound 3.16 µM
[6] = second compound 0.00316 µM, first compound 10 µM
[7] = second compound 0.01 µM, first compound 0.0316 µM
[8] = second compound 0.01 µM, first compound 0.1 µM
[9] = second compound 0.01 µM, first compound 0.316 µM
[10] = second compound 0.01 µM, first compound 1 µM
[11] = second compound 0.01 µM, first compound 3.16 µM
[12] = second compound 0.01 µM, first compound 10 µM
[13] = second compound 0.0316 µM, first compound 0.0316 µM
[14] = second compound 0.0316 µM, first compound 0.1 µM
[15] = second compound 0.0316 µM, first compound 0.316 µM
[16] = second compound 0.0316 µM, first compound 1 µM
[17] = second compound 0.0316 µM, first compound 3.16 µM
[18] = second compound 0.0316 µM, first compound 10 µM
[19] = second compound 0.1 µM, first compound 0.0316 µM
[20] = second compound 0.1 µM, first compound 0.1 µM
[21] = second compound 0.1 µM, first compound 0.316 µM
[22] = second compound 0.1 µM, first compound 1 µM
[23] = second compound 0.1 µM, first compound 3.16 µM
[24] = second compound 0.1 µM, first compound 10 µM
[25] = second compound 0.316 µM, first compound 0.0316 µM
[26] = second compound 0.316 µM, first compound 0.1 µM
[27] = second compound 0.316 µM, first compound 0.316 µM
[28] = second compound 0.316 µM, first compound 1 µM
[29] = second compound 0.316 µM, first compound 3.16 µM
[30] = second compound 0.316 µM, first compound 10 µM
[31] = second compound 1 µM, first compound 0.0316 µM
[32] = second compound 1 µM, first compound 0.1 µM
[33] = second compound 1 µM, first compound 0.316 µM
[34] = second compound 1 µM, first compound 1 µM
[35] = second compound 1 µM, first compound 3.16 µM
[36] = second compound 1 µM, first compound 10 µM
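Note: spheroids exposed to compound for 7 days before readout.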
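Throughout, for viability, T/C: 100% = DMSO vehicle control luminescence.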

CCC(CC)c1cc(NC2CCC(N)C2)n2nccc2n1 (centres undefined) + C=CC(=O)N1CCN(c2nc(OCC3CCCN3C)nc3c(F)c(-c4nc(N)cc(C)c4C(F)(F)F)c(Cl)cc23)C(C)C1
IC50 (second compound 0.00316 µM): 2730 nM | IC50 (second compound 0.01 µM): 2700 nM | IC50 (second compound 0.0316 µM): 2770 nM | IC50 (second compound 0.1 µM): 2470 nM | IC50 (second compound 0.316 µM): 2460 nM | IC50 (second compound 1 µM): 2340 nM | viability, T/C [1]: 98.2% | viability, T/C [2]: 98.6% | viability, T/C [3]: 106% | viability, T/C [4]: 93.9% | viability, T/C [5]: 43.6% | viability, T/C [6]: 29.6% | viability, T/C [7]: 97.2% | viability, T/C [8]: 109% | viability, T/C [9]: 102% | viability, T/C [10]: 96% | viability, T/C [11]: 42.6% | viability, T/C [12]: 27.8% | viability, T/C [13]: 96% | viability, T/C [14]: 104% | viability, T/C [15]: 106% | viability, T/C [16]: 101% | viability, T/C [17]: 43.3% | viability, T/C [18]: 29.9% | viability, T/C [19]: 97.5% | viability, T/C [20]: 95.9% | viability, T/C [21]: 102% | viability, T/C [22]: 98.2% | viability, T/C [23]: 36.8% | viability, T/C [24]: 26.5% | viability, T/C [25]: 104% | viability, T/C [26]: 112% | viability, T/C [27]: 109% | viability, T/C [28]: 105% | viability, T/C [29]: 34.6% | viability, T/C [30]: 28.5% | viability, T/C [31]: 98.6% | viability, T/C [32]: 100% | viability, T/C [33]: 109% | viability, T/C [34]: 111% | viability, T/C [35]: 30.7% | viability, T/C [36]: 27.6%

CC(C)NCC(C(=O)N1CCN(c2ncnc3c2C(C)CC3O)CC1)c1ccc(Cl)cc1 (centres undefined) + C=CC(=O)N1CCN(c2nc(OCC3CCCN3C)nc3c(F)c(-c4nc(N)cc(C)c4C(F)(F)F)c(Cl)cc23)C(C)C1
IC50 (second compound 0.00316 µM): > 10000 nM | IC50 (second compound 0.01 µM): > 10000 nM | IC50 (second compound 0.0316 µM): > 10000 nM | IC50 (second compound 0.1 µM): > 10000 nM | IC50 (second compound 0.316 µM): > 10000 nM | IC50 (second compound 1 µM): > 10000 nM | viability, T/C [1]: 117% | viability, T/C [2]: 116% | viability, T/C [3]: 107% | viability, T/C [4]: 95.5% | viability, T/C [5]: 102% | viability, T/C [6]: 102% | viability, T/C [7]: 106% | viability, T/C [8]: 110% | viability, T/C [9]: 103% | viability, T/C [10]: 108% | viability, T/C [11]: 90.9% | viability, T/C [12]: 105% | viability, T/C [13]: 97.2% | viability, T/C [14]: 113% | viability, T/C [15]: 110% | viability, T/C [16]: 103% | viability, T/C [17]: 105% | viability, T/C [18]: 94.2% | viability, T/C [19]: 108% | viability, T/C [20]: 103% | viability, T/C [21]: 99.5% | viability, T/C [22]: 106% | viability, T/C [23]: 95.9% | viability, T/C [24]: 91% | viability, T/C [25]: 106% | viability, T/C [26]: 112% | viability, T/C [27]: 105% | viability, T/C [28]: 99.3% | viability, T/C [29]: 111% | viability, T/C [30]: 99.1% | viability, T/C [31]: 106% | viability, T/C [32]: 104% | viability, T/C [33]: 118% | viability, T/C [34]: 99.8% | viability, T/C [35]: 100% | viability, T/C [36]: 99.4%

— PubChem BioAssay AID2060907 (Molecular Pharmacology Branch, DTP, NCI, 2025)
